From patent US20080201790A1, “Method and product for regulating cell responsiveness to external signals” (priority 1993, published 2008)
Values belong to the substance of their own block, whether it stands above or below them.

Key:
GST-Ras^V12 = assay: Binding of COS cell-expressed MEKK1 proteins to GST-Ras^V12 agarose; conditions: COS cell lysates, immunoblot
Description: COS cells were transiently transfected by the DEAE-dextran protocol as generally described in Example 3. Cos cells were transfected with: (1) p-MEKK1 containing a nucleic acid molecule encoding MEKK1 as described in Lange-Carter et al. (Science 260:315-319, […]); (2) p-MEKKNH2 containing a nucleic acid molecule that encodes a 858 base pair Pvull(682)-Ncol(1541) restriction digest fragment of the amino terminus of MEKK1 ligated into pCMV5; (3) p-MEKKCOOH containing a nucleic acid molecule that encodes a 1435 base pair Ncol(1541)-Sspl(2976) restriction digest fragment that includes the entire kinase domain of MEKK1 ligated into pCMV5; (4) pCMV5 without insert; or (5) p-C4Raf containing a nucleic acid molecule that encodes the amino terminus of Raf-1 ligated into pCMV5. COS cells expressing the various MEKK1 proteins were […] COS cells expressing the various MEKK1 proteins were lysed in EB (1% Triton X-100, 10 mM Tris HCl [pH 7.4], 5 mM EDTA, 50 mM NaCl, 50 mM NaF, 0.1% bovine serum albumin, 0.2 U/ml aprotinin, 1 mM phenylmethylsulfonyl fluoride and 2 mM Na3 VO4). The lysates were separated into two equal parts for separate binding reactions. Half of the lysate was incubated with GST agarose (1.5 μg) while half of the lysate was incubated with GST-Ras^V12 agarose (1.5 μg) (purchased from UBI) for 1 hr at 4° C. […]

Raf [1] = assay: Raf activation assay (immunoprecipitated Raf, kinase-inactive MEK-1) in NIH3T3 cells; assay type: cell-based
Procedure: (§1) Differential regulation of MEK in Rat 1a and NIH3T3 cells expressing gip2, v-src, v-ras, or v-raf led the present inventor to investigate the protein kinases that are putative regulators of MEK-1. Recently, it was shown that Raf-1 can phosphorylate and activate MEK. […] Cells were serum starved and challenged in the presence or absence of the appropriate growth factors, as described above. […] Cells were lysed by scraping in ice cold RIPA buffer (50 mM Tris, pH 7.2, 150 mM NaCl, 0.1% SDS, 0.5% sodium deoxycholate, 1.0% Triton X 100, 10 mM sodium pyrophosphate, 25 mM sodium glycerophosphate, 2 mM sodium vanadate, 2.1 μg/ml aprotinin) and were microfuged for 10 min to remove nuclei. The supernatants were normalized for protein content and precleared with protein A Sepharose prior to immunoprecipitation with rabbit antiserum to the C terminus of Raf-1 and protein A Sepharose for 2-3 h at 4° C. The beads were washed twice with ice cold RIPA and twice with PAN (10 mM Pipes, pH 7.0, 100 mM NaCl, 21 μg/ml aprotinin). A portion of the immunoprecipitate was diluted with SDS sample buffer and used for immunoblot analysis. […] Wild type recombinant MEK-1 was autophosphorylated in parallel as a marker. Reactions were terminated by the addition of 12.5 μl 5×SDS sample buffer, boiled for 5 minutes and subjected to SDS-PAGE and autoradiography.

98 kD PC12 cell MEKK = assay: MEKK immunoprecipitate kinase assay from PC12 cells with kinase inactive MEK-1; assay type: cell-based; conditions: serum starved PC12 cells
Procedure: Reactions were stopped by the addition of 2×SDS sample buffer (20 μl). The samples were boiled for 3 minutes and subjected to SDS-PAGE and autoradiography. Raf-B was immunoprecipitated from the same untreated and treated PC12 cell lysates as above with an antiserum to a COOH-terminal peptide of Raf-B (Santa Cruz Biotechnology, Inc.) and assayed similarly. Raf-1 was immunoprecipitated with an antiserum to the 12 COOH-terminal amino acids of Raf-1 (Santa Cruz Biotechnology, Inc.).
Data represent the relative magnitude of the response for each timepoint as quantitated by phosphorimager analysis of radioactive gels from a typical experiment.
Expression of N^17Ras was induced in PC12 clones stably transfected with the N^17Ras gene by the addition of dexamethasone to the starvation media. […] PC12 cell clones stably transfected with the N^17Ras gene are less responsive to EGF-mediated activation of MEKK activity than are wild type PC12 cells. […] MEKK activity in immunoprecipitates or column fractions was dissociable from that of EGF-stimulated c-Raf-1 and Raf-B activities.
To determine whether the growth factor-mediated activation of 98 kD PC12 cell MEKK was inhibited by PKA, forskolin was used to elevate intracellular cAMP and activate PKA. […] Raf-B activity was also assayed from the same cell lysates to test whether its regulation differed from that of MEKK. Raf-B was immunoprecipitated from the same cell lysates as described above and assayed for its ability to phosphorylate MEK-1 as described above.

Raf [2] = assay: Raf activation assay (immunoprecipitated Raf, kinase-inactive MEK-1) in Rat 1a cells; assay type: cell-based
Procedure: as §1

Raf-B = Raf-B immunoprecipitate kinase assay from PC12 cells with kinase inactive MEK-1; assay type: cell-based; conditions: EGF 30 ng/ml, serum starved PC12 cells
MEKK2 = assay: Cellular localization of MEKK2 in Swiss 3T3 cells, antibody staining; assay type: cell-based; conditions: serum starved Swiss 3T3 cells, 10 minutes
Description: (§2) Cells were fixed and stained with an antibody specifically recognizing either MEKK1 or MEKK2. Secondary FITC-conjugated anti-rabbit IgG antibody was used for staining.

MEKK1 = assay: Cellular localization of MEKK1 in Swiss 3T3 cells, antibody staining; assay type: cell-based; conditions: serum starved Swiss 3T3 cells, 10 minutes
Description: as §2

GST-Rac = GST-Rac (Homo sapiens, UniProt P63000); assay: Binding of MEKK4 to GST fusion protein on glutathione-Sepharose, Rac
Procedure: (§3) GST fusion proteins encoding Cdc42 or Rac loaded with either GTPγs or GDP were incubated with MEKK4 using previously described methods (Russell, M. et al. (1995) J. Biol. Chem. 270:11757-11760). The source of MEKK4 was either from a Cos cell transient transfection or a recombinant MEKK4 protein expressed in E. coli. The recombinant MEKK4 protein was truncated to express residues from 1261-1597 of the full length protein. A GST fusion protein of Ha-Ras was used as a control. The MEKK4 protein was incubated for 1 hr at 4° C. with either GST-Cdc42, GST-Rac or GST-Ras bound to glutathione-Sepharose beads. Each GST fusion protein had GTPγs or GDP bound to the Cdc42, Rac or Ras moiety of the fusion protein. Following the incubation the beads were washed extensively and the bound proteins removed in SDS-Laemmli buffer and resolved by SDS-PAGE using 10% acrylamide gels. The proteins were transferred to nitrocellulose and immunoblotted using a MEKK4 specific antibody recognizing the extreme COOH-terminus of MEKK4. […] The GDP bound forms of GST-Cdc42 and GST-Rac bound less than 10% of the MEKK4 bound in the presence of GTPγs.

GST-Cdc42 = GST-Cdc42 (Homo sapiens, UniProt P60953); assay: Binding of MEKK4 to GST fusion protein on glutathione-Sepharose, Cdc42
Chain of GST-Cdc42 (P60953 whole entry, the tested form may be a part): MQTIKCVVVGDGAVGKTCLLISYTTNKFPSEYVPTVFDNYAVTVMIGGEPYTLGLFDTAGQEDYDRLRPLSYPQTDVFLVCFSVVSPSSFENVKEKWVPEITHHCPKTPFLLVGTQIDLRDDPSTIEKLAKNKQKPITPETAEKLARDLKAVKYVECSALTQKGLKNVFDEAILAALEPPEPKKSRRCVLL
Procedure: as §3

GST-Ras = GST-Ras (Homo sapiens, UniProt P01112); assay: Binding of MEKK4 to GST fusion protein on glutathione-Sepharose, Ras; conditions: GTPγS or GDP bound form
Chain of GST-Ras (P01112 whole entry, the tested form may be a part): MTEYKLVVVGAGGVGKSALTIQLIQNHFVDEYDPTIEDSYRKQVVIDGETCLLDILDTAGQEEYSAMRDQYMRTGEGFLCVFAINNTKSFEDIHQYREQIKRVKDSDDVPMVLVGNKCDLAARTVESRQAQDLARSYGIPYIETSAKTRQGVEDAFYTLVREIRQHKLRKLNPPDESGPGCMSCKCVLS
Procedure: as §3

[3] = test system: Swiss 3T3 cells and REF52 cells; assay: Beauvericin-induced apoptosis, anti-tubulin and propidium iodide staining; assay type: cell-based; conditions: 50 μM, 6 hours at 37° C.
Procedure: A first group of transfected Swiss 3T3 cells and REF52 cells were treated with 50 μM beauvericin for 6 hours at 37° C. Beauvericin is a compound known to induce apoptosis in mammalian cells. A second group of cells were treated with a control buffer lacking beauvericin. The treated cells were then fixed in paraformaldehyde and permeabilized with saponin using protocols standard in the art. The permeabilized cells were then labelled by incubating the cells with a fluorescein-labelled anti-tubulin antibody (1:500; obtained from GIBCO, Gaithersburg, Md.) to detect cytoplasmic shrinkage or 10 μM propidium iodide (obtained from Sigma, St. Louis, Mo.) to stain DNA to detect nuclear condensation. The labelled cells were then viewed by differential fluorescent imaging using a Nikon Diaphot fluorescent microscope.

MEK = MEK activity in cell lysates from thrombin stimulated Rat 1a cells; assay type: cell-based
Description: This Example Describes the Determination of Whether a Similar or Distinct MEK Activity is Involved in Activation of MAPK Though Gi Protein Coupled Receptors by Measuring MEK Activity in Cell Lysates from Thrombin Stimulated Rat 1a Cells

MAPK = assay: Thrombin stimulation of MAPK; assay type: cell-based

Substance: C4Raf: amino terminus of Raf-1 encoded by p-C4Raf [reference compound]
binding to GST-Ras^V12 (in words) (GST-Ras^V12): bound to GST-Ras^V12(GTPγS) agarose

Substance: EGF: human EGF, epidermal growth factor
activation of Raf (Raf [1]): approximately 2.7 fold | persistence of MEKK activation (98 kD PC12 cell MEKK; EGF 30 ng/ml): at least 30 minutes | MEKK activity after stimulation (in words) (98 kD PC12 cell MEKK; 5 minutes): increased MEKK activity | Raf catalyzed phosphorylation of MEK-1 (Raf [2]; Gip2 expressing Rat 1a cells): 1.8 fold | Raf phosphorylation of recombinant MEK-1 over basal (Raf [2]; Rat 1a cells): approximately 2.6 fold | Raf catalyzed phosphorylation of MEK-1 (Raf [2]; v-Src expressing Rat 1a cells): 1.4 fold | time of peak Raf-B activity (Raf-B): 3 to 5 min | cellular localization of MEKK2 (MEKK2): did not effect the cellular localization of MEKK2 | cellular localization of MEKK1 (MEKK1): induced a dramatic translocation of MEKK1 to the plasma membrane

binding to Rac in the GTPγS form (GST-Rac; 1 hr at 4° C., immunoblot): specifically bound | MEKK4 bound by GDP form relative to GTPγs form (GST-Rac; GST-Rac): less than 10% | binding to Cdc42 in the GTPγS form (GST-Cdc42; 1 hr at 4° C., immunoblot): specifically bound | MEKK4 bound by GDP form relative to GTPγs form (GST-Cdc42; GST-Cdc42): less than 10% | binding to Ras (GST-Ras): did not bind significantly
Substance: MEKK4: MEK kinase 4 protein, SEQ ID No. 12 / 14

Substance: beauvericin
morphology characteristic of apoptosis [3]: cytoplasmic shrinkage (monitored by the anti-tubulin antibodies) and nuclear condensation

Substance: thrombin
magnitude of MEK activity relative to EGF stimulation (MEK): two to three-fold less | stimulation of MEK over basal (MEK): two to three-fold over basal | activation of Raf (in words) (Raf [1]): does not | time of maximal stimulation of MAPK (MAPK): 3 min | activation of Raf (in words) (Raf [2]; Rat 1a cells): did not measurably activate Raf
